Experiment: Solubility in pure water at room temperature
Assay type: physicochemical

- solubility (water solubility of arctigenin): < 0.05%
Compound: COc1cc(C[C@H]2C(=O)OC[C@@H]2Cc2ccc(OC)c(OC)c2)ccc1O [arctigenin raw material, arctigenin]
